Data taken from PubChem BioAssay (NCI).
“And” between values parts separate entries of the source, which are not always exact repeats. Identical values can stand only once.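 Briefly, cells in 96-well plates were exposed to five compound concentrations for 48 h, and endpoints were estimated by linear interpolation. GI50 = concentration required for 50% inhibition of growth. At the TGI there is no net growth.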

Key:
Test in all cases: NCI tumour cell line growth inhibition, 48 h
[1] = tested on: KM20L2 colon
[2] = tested on: HOP-18 NSCLC
[3] = tested on: DMS 114 small cell lung
[4] = tested on: M19-MEL melanoma
[5] = tested on: SNB-78 CNS
[6] = tested on: DLD-1 colon
[7] = tested on: RXF-631 renal
[8] = tested on: XF 498 CNS
[9] = tested on: MDA-N
[10] = tested on: SN12K1 renal
[11] = tested on: P388/ADR leukemia

Compound	TGI [1]	TGI [2]	TGI [3]	TGI [4]	TGI [5]	TGI [6]	TGI [7]	TGI [8]	further results
O=C(Cc1nc2ccccc2o1)C(=O)Nc1ccc(Cl)cc1Cl	> 100 µM	> 100 µM	> 100 µM	> 100 µM	> 100 µM	> 100 µM	–	–	–
COC(=O)C1=CCC2c3[nH]c4ccccc4c3CCN2C1 (stereo not given)	> 354 µM	–	> 354 µM	> 354 µM	–	> 354 µM	–	–	–
Cc1cc(C)c(/C=N/NS(=O)(=O)c2ccccc2)c(C)c1	> 100 µM	> 100 µM	> 100 µM	> 100 µM	> 100 µM	> 100 µM	> 100 µM	–	–
N#C/C(=C\c1ccc[nH]1)C(=O)c1ccccc1	> 100 µM	> 100 µM	> 100 µM	> 100 µM	> 100 µM	> 100 µM	> 100 µM	–	–
CCc1ccccc1NC(=O)C(=O)C1C(=O)N(c2ccccc2)N=C1N (stereo not given)	> 100 µM	> 100 µM	> 100 µM	> 100 µM	> 100 µM	> 100 µM	> 100 µM	> 100 µM	–
O=C(CCCn1ccnc1[N+](=O)[O-])NCCn1cnc([N+](=O)[O-])n1	–	–	–	–	–	–	–	–	TGI [9]: > 100 µM
Cc1ccccc1-n1c(CCl)nc2ccc(Br)cc2c1=O	39.9 µM	55.3 µM	20.5 µM	19.9 µM	52.2 µM	16.6 µM	42.1 µM	–	–
COc1cc2c(cc1[N+](=O)[O-])C(=O)C(Br)(Br)CCC2	–	–	–	–	–	–	–	–	TGI [9]: 9.46 µM
CC1C(O)=C(O)c2ccccc2N1O (stereo not given)	> 100 µM	> 100 µM	–	> 100 µM	> 100 µM	> 100 µM	> 100 µM	> 100 µM	–
Cc1cc(C)nc(NS(=O)(=O)c2ccc(NC(=O)COC(=O)c3cccc4c(=O)c5ccccc5[nH]c34)cc2)n1	> 100 µM	–	> 100 µM	42.1 µM	> 100 µM	> 100 µM	–	> 100 µM	–
c1ccc(CC(Nc2cccnc2)c2ccccc2)cc1 (stereo not given)	–	–	–	–	–	–	–	–	TGI [9]: 47.8 µM
CC1=CC[C@@H](C(C)(C)O)C[C@@H]1O	> 5000 µM	–	> 5000 µM	> 5000 µM	> 5000 µM	> 5000 µM	> 5000 µM	> 5000 µM	–
CC1=C(C(=O)Nc2ccc(C)cc2)C(c2cccc([N+](=O)[O-])c2)C(C(=O)Nc2ccc(C)cc2)=C(C)N1	48 µM	80.2 µM	74.2 µM	63.4 µM	> 100 µM	> 100 µM	91.3 µM	50.7 µM	–
CC[As](CC)SCC1OC(OC(C)=O)C(OC(C)=O)C(OC(C)=O)C1OC(C)=O (stereo not given)	32.7 µM	29.6 µM	17.6 µM	27.5 µM	34.1 µM	30.9 µM	6.64 µM	32 µM	–
COC(=O)C1=CC(=O)[C@@H]2CCCC[C@H]12	> 100 µM	> 100 µM	> 100 µM	> 100 µM	> 100 µM	> 100 µM	> 100 µM	–	–
CC#CC#C/C(=C/C=CC(=O)OC)SC	–	–	–	–	–	–	–	–	TGI [9]: > 100 µM
CCN(CC)C(=O)CC12CCCCC1=Nc1ccccc12 (stereo not given)	> 100 µM	> 100 µM	–	> 100 µM	> 100 µM	> 100 µM	> 100 µM	> 100 µM	–
COC(=O)C(C(=O)C(=O)Nc1ccccc1C)c1nc2ccc([N+](=O)[O-])cc2[nH]c1=O (stereo not given)	> 100 µM	> 100 µM	> 100 µM	> 100 µM	> 100 µM	> 100 µM	–	> 100 µM	–
COc1cc2c(cc1-c1coc3cc(O)ccc3c1=O)OCO2	–	–	–	–	–	–	–	–	TGI [9]: > 100 µM
COc1ccc2nc3ccccc3c(NCCN(CCCl)CCCl)c2c1	2.4 µM	–	–	3.2 µM	4.53 µM	4.04 µM	4.71 µM	1.89 µM	–
CCN(/N=C1\CC2C=CCN(C2)C(=O)Cc2c1[nH]c1ccccc21)S(=O)(=O)c1ccc(C)cc1 (stereo not given)	> 100 µM	–	> 100 µM	> 100 µM	–	> 100 µM	> 100 µM	> 100 µM	–

Compound	TGI [1]	TGI [2]	TGI [3]	TGI [4]	TGI [5]	TGI [6]	TGI [7]	TGI [8]	further results
O=C(CC1(O)C(=O)Nc2ccccc21)c1ccccc1O (stereo not given)	> 100 µM	–	> 100 µM	> 100 µM	> 100 µM	> 100 µM	> 100 µM	> 100 µM	–
CCn1ncc(N=O)c1N	–	–	–	–	–	–	–	–	TGI [9]: > 100 µM
Fc1ccc(N=C2C=CC(=Nc3ccc(F)cc3)c3ccccc32)cc1	> 100 µM	> 100 µM	–	> 100 µM	> 100 µM	> 100 µM	–	> 100 µM	–
CN1C2(c3ccccc3)C(C(=O)c3ccccc3)=C(C(=O)c3ccccc3)C1(c1ccccc1)c1c(-c3ccccc3)sc(-c3ccccc3)c12	> 100 µM	–	> 100 µM	> 100 µM	> 100 µM	> 100 µM	–	–	–
CSC1=Nc2ccccc2N=C(c2ccccc2)C1	> 100 µM	> 100 µM	65.5 µM	> 100 µM	> 100 µM	> 100 µM	> 100 µM	> 100 µM	–
Cc1cc(Cl)cc2c1NC(=O)C2(O)C(C(=O)c1ccccc1)c1ccccc1 (stereo not given)	> 100 µM	> 100 µM and 95.7 µM	85.7 µM and 45.8 µM	10 µM	> 100 µM	> 100 µM	> 100 µM	82.7 µM and > 100 µM	GI50 [2]: > 100 µM and 22 µM
COC1C(=O)CCC2(CO2)C1(O)C1(C)OC1CC=C(C)C (stereo not given)	–	–	–	–	–	–	–	–	TGI [9]: > 100 µM
COc1cc(CC(=O)O)c([N+](=O)[O-])cc1OC	> 100 µM	–	> 100 µM	> 100 µM	> 100 µM	> 100 µM	> 100 µM	–	–
CC(=O)O[C@@H]1CC[C@@]2(C)C(=O)C34C[C@@]5(C)C([C@@H](C)CCCC(C)C)CCC5(C)[C@](O)(O3)C(=O)[C@H]4C2C1(C)C (stereo not given in full)	32.5 µM	29.5 µM	33.6 µM	27.3 µM	48.2 µM	34.7 µM	34.2 µM	–	–
[CH3][Hg]/[N]=C(/N)NC#N	33.4 µM	17.1 µM	3.43 µM	25.2 µM	27.1 µM	16.9 µM	–	–	GI50 [1]: 17.3 µM; GI50 [2]: 4.63 µM; GI50 [3]: 1.98 µM; GI50 [4]: 12.1 µM; GI50 [5]: 4.76 µM; GI50 [6]: 4.27 µM
N#CCCN(c1ccc(C=O)cc1)S(=O)(=O)c1ccccc1	> 100 µM	–	> 100 µM	> 100 µM	–	–	–	> 100 µM	–
CCCCCCCCCC[C@H](O)[C@H]1CC[C@@H]([C@@H](O)CC[C@H](O)[C@@H]2CCC(CCCCCCC[C@@H](O)CC3=C[C@H](C)OC3=O)O2)O1 (stereo not given in full)	–	–	–	–	–	–	–	–	GI50 [9]: 2.1 µM; TGI [9]: 16 µM
COc1ccc([C@@H]2OC(=O)C3C2C(=O)O[C@H]3c2ccc(OC)cc2)cc1 (stereo not given in full)	> 100 µM	> 100 µM	> 100 µM	> 100 µM	> 100 µM	> 100 µM	> 100 µM	> 100 µM	–
CC1[C@@H]2CC=C3[C@H]4CCC5Cc6nc7c(nc6C[C@@]5(C)C4CC(=O)[C@]32CO[C@]12OC(C)(C)CC2O)CC1CC[C@@H]2C3=C[C@H]4O[C@@]5(O[C@@](C)(CO)C[C@@H]5O)C(C)[C@@]4(O)[C@]3(C)[C@@H](O)CC2[C@]1(C)C7 (stereo not given in full)	0.0349 µM and 0.0754 µM	0.393 µM and > 3.65 µM	0.0424 µM	> 3.65 µM	–	0.709 µM and > 3.65 µM	0.00275 µM	0.424 µM and 1.8 µM	GI50 [1]: 0.00119 µM and 0.00294 µM; GI50 [8]: 0.000725 µM and 0.00479 µM; GI50 [9]: 0.00389 µM; TGI [9]: 0.0303 µM; GI50 [4]: 0.617 µM and 2.48 µM; GI50 [5]: 0.000777 µM and 0.00329 µM; TGI [10]: 0.397 µM; GI50 [7]: 0.000312 µM; TGI [11]: 0.0109 µM; GI50 [6]: 0.0416 µM and 0.0575 µM
Cc1c(Cl)c(C)c(Cl)c(O)c1Cl	–	–	–	–	–	–	–	–	TGI [9]: 99.2 µM
C[C@]12CCc3nn(-c4ccccc4)nc3C1CC[C@@H]1C2CC[C@]2(C)C(=O)CCC12 (stereo not given in full)	> 100 µM	> 100 µM	> 100 µM	> 100 µM	> 100 µM	> 100 µM	–	–	–
CCOC(=O)C(=O)C(C#N)c1ccc(Cl)cc1 (stereo not given)	> 100 µM	–	> 100 µM	> 100 µM	> 100 µM	> 100 µM	–	> 100 µM	–
O=C(CC(=O)c1cccc([N+](=O)[O-])c1)C(=O)Nc1ccccc1	> 100 µM	> 100 µM	> 100 µM	> 100 µM	> 100 µM	> 100 µM	> 100 µM	> 100 µM	–
CC(C)C1=CC2=C(C(=O)C1=O)C13CCCC(C)(C)C1CC2OC3=O (stereo not given)	–	–	–	–	–	–	–	–	TGI [9]: 37.2 µM
CC(=O)Nc1ccc(C2=N/C(=C\c3ccc(Cl)cc3)C(=O)O2)cc1	> 100 µM	> 100 µM	–	57.5 µM	> 100 µM	> 100 µM	–	61.4 µM	–
O=C(O)c1ccc(/C=N/N=C2c3ccccc3-c3ccccc32)cc1	–	–	–	–	–	–	–	–	TGI [9]: > 100 µM
